Patent publication US9121022B2, “Method for controlling herbicide-resistant plants” (priority 2010, dated 2015)
Counter-ions that a name gives are not always drawn.

What was measured:
Assay type in all cases: in vivo
[1] = system: glyphosate-resistant Palmer amaranth plants; test: additives (salts, EDTA, glycerin) to polynucleotide spray solutions, percent control and plant height (Example 35, Tables 26-28); conditions: additive in spray solution
Source text: The efficacy of different substances (including salts, a chelating agent, a humectant, and polyamines) as polynucleotide transferring agents or as enhancers of a known polynucleotide transferring agent was investigated.

[2] = system: glyphosate-resistant Palmer amaranth containing 16 copies of EPSPS; test: glyphosate counter-ions with EPSPS polynucleotides, percent control and plant height (Example 35, Table 29); conditions: for Palmer control (%): Table 29: glyphosate salt 1682 g acid equivalent per hectare, with or without EPSPS polynucleotides IDT [1]-[4] in 0.5% SILWET L-77, 2% ammonium sulfate, 16-copy EPSPS Palmer amaranth, 3 replicates
Source text: FIG. 38 depicts the effect of varying glyphosate counter-ions on herbicidal activity (presented as percent of weed control/kill, and as plant height) of topically applied polynucleotides (RNA) on glyphosate-resistant Palmer amaranth plants. A mixture of EPSPS polynucleotides (IDT [1] (SEQ ID NO:83-84), IDT [2] (SEQ ID NO:85-86), IDT [3] (SEQ ID NO:87-88), and IDT [4] (SEQ ID NO:89-90)) in 0.5% SILWET L-77® brand surfactant, 2% ammonium sulfate in 10 millimolar sodium phosphate buffer, pH 6.8 with 0.2% Roundup® WeatherMax® carrier (MON56151 tallowamine surfactant blend of tallowamine (16-18C) and cocoamine (12-14C) in the ratio of 55:45) and 1682 g acid equivalent per hectare of one of the glyphosate salts; K+ glyphosate, isopropylammonium+ glyphosate or monoethanolammonium+ glyphosate at 215 liters/acre by Milli spray on 3 replicates of 4-6 inch glyphosate-resistant Palmer amaranth containing 16 copies of EPSPS. Plant height was scored at 21 days after glyphosate treatment.

[3] = system: Glyphosate-resistant Palmer amaranth plants (33, 36, or 57 copies EPSPS); test: spermine, spermidine or ammonium sulfate with dsRNA then glyphosate (Example 35, FIG. 39); conditions: for performance compared with 2% ammonium sulfate: 1 or 10 millimolar
Experimental: The effect of the polyamine cations spermine (N,N′-bis(3-aminopropyl)butane-1,4-diamine) and spermidine (N-(3-aminopropyl)butane-1,4-diamine) on herbicidal activity of topically applied polynucleotides (RNA) on glyphosate-resistant Palmer amaranth plants was investigated. […] The dsRNA polynucleotide solutions were prepared with either 1 or 10 millimolar spermine or spermidine or 2% ammonium sulfate, in a 10 millimolar sodium phosphate (pH 6.8) buffer. Control solutions (without polynucleotides) were prepared with either 1 or 10 millimolar spermine or spermidine or 2% ammonium sulfate, in a 10 millimolar sodium phosphate (pH 6.8) buffer. Glyphosate-resistant Palmer amaranth plants (33, 36, or 57 copies EPSPS) were pre-sprayed with 1% SILWET L-77® brand surfactant. The dsRNA polynucleotide solutions (11.6 grams/acre) or buffer solutions were applied as drops on four lower fully expanded leaves of glyphosate resistant Palmer amaranth by pipetting. Two days following polynucleotide treatment the plants were sprayed with glyphosate (3360 g acid equivalent per hectare of Roundup® WeatherMAX® brand herbicide).

[4] = system: Nicotiana benthamiana phytoene desaturase; test: single PDS ssDNA 22-mer on tobacco: bleaching of organs, seed set, germination (Example 12)
Experimental: Four-week old tobacco (Nicotiana benthamiana) plants were used in all treatments. Two fully expanded leaves (one cotyledon, one true leaf) were conditioned by dipping into freshly made surfactant solution (0.1% SILWET L-77® brand surfactant in double-distilled water) for a few seconds and allowed to dry for 15-30 minutes. Twenty microliters of a single-stranded DNA (ssDNA) 22-mer oligonucleotide with the sequence […] (SEQ ID NO:39), corresponding to the nucleotides at positions 1099-1120 of Nicotiana benthamiana phytoene desaturase (SEQ ID NO:2) was applied as a 25 micromolar solution in 0.01% SILWET L-77® brand surfactant in 5 millimolar sodium phosphate buffer, pH 6.8 to the top surface of each conditioned leaf for a total of 40 microliters (1 nanomole oligonucleotide) per plant. Control plants were treated with the SILWET® brand surfactant solution without the DNA oligonucleotide.
Flowers of both control and ssDNA-treated plants were allowed to set seed. Seeds were collected from mature fruits, weighed, and allowed to germinate. Seed weights were identical (about 11 mg per 100 seeds) and seed morphology appeared similar between the ssDNA-treated and the control plants.
In a separate assay using a similar procedure, tobacco plants were conditioned by dipping in 0.1% SILWET L-77® brand surfactant in double-distilled water, allowed to dry for 15-30 minutes, and treated with the PDS ssDNA 22-mer (SEQ ID NO:39) applied as a 25 micromolar solution in 0.01% SILWET L-77® brand surfactant in 5 millimolar sodium phosphate buffer, pH 6.8 to the top surface of each conditioned leaf for a total of 40 microliters (1 nanomole oligonucleotide) per plant. Other plants were not conditioned with a surfactant treatment, but were treated only with 1 nanomole of the PDS ssDNA 22-mer (SEQ ID NO:39) applied either by infiltration with a needleless syringe (shown in FIG. 18B) or by hand application of drops to the leaf surface (not shown in FIG. 18B), and either as a 25 micromolar solution in 0.01% SILWET L-77® brand surfactant in 5 millimolar sodium phosphate buffer, pH 6.8 or as a 25 micromolar solution in 5 millimolar sodium phosphate buffer, pH 6.8 (without surfactant). Negative control plants were treated with the SILWET® brand surfactant buffer solution without the DNA oligonucleotide. Results are depicted in FIG. 18B.

[5] = system: Palmer amaranth phytoene desaturase (PDS); test: sequence specificity of PDS dsRNA on Palmer amaranth, leaf bleaching (Example 11)
Source text: Palmer amaranth phytoene desaturase (PDS) has the sequence […] […] […] […] […] […] […] […] […] […] […] […] […] […] […] […] […] […] […] […] […] […] […] […] (SEQ ID NO:37). A 678 base pair dsRNA polynucleotide with an anti-sense strand capable of hybridizing to the RNA encoded by the nucleotides at positions 317-994 (shown as underlined text) in SEQ ID NO:37 and a 198 base pair dsRNA polynucleotide with an anti-sense strand capable of hybridizing to the RNA encoded by the nucleotides at positions 797-994 (shown as italicized and underlined text) in SEQ ID NO:37 were synthesized.
Nicotiana benthamiana phytoene desaturase has the sequence […] […] […] […] […] […] […] […] […] […] […] […] […] […] […] […] […] […] […] […] […] […] […] […] […] […] (SEQ ID NO:38). A 685 base pair dsRNA polynucleotide with an anti-sense strand capable of hybridizing to the RNA encoded by the nucleotides at positions 421-1105 (shown as underlined text) in SEQ ID NO:38 and a 192 base pair dsRNA polynucleotide with an anti-sense strand capable of hybridizing to the RNA encoded by the nucleotides at positions 914-1105 (shown as italicized and underlined text) in SEQ ID NO:38 were synthesized.
Palmer amaranth plants having 16 copies of EPSPS and 5-8 inches high were treated with 0.1% SILWET L-77® brand surfactant solution freshly made with ddH2O. Four fully expanded leaves per plant were dipped into the SILWET L-77® brand surfactant solution for a few seconds, and allowed to dry for 30 minutes to 1 hour before application of the polynucleotide composition. Individual polynucleotide solutions were made for each of the 678 bp Palmer PDS dsRNA, 198 bp Palmer PDS dsRNA, the 685 bp Nicotiana benthamiana PDS dsRNA, and the 192 bp Nicotiana benthamiana PDS dsRNA (0.6 micromolar polynucleotide in 0.01% SILWET L-77® brand surfactant, 5 mM sodium phosphate buffer, pH 6.8). 10 microliters of polynucleotide solution (or buffer as a control) was applied to the top surface of each of the four pre-treated leaves per plant to provide a total of 40 microliters for each plant. Plants were kept in a growth chamber, and leaf bleaching was observed 3 days post treatment.

Molecule: OCC(O)CO [Glycerin, glycerin]
- effect of additive on efficacy of the polynucleotides and herbicidal activity of glyphosate [1]: enhance the efficacy of the polynucleotides

Molecule: CC(C)N.O=C(O)CNCP(=O)(O)O [IPA + glyphosate]
- Palmer control (%) [2]: 9%

Molecule: O=C(O)CNCP(=O)([O-])O.[K+] [K + glyphosate]
- Palmer control (%) [2]: 23%

Molecule: NCCO.O=C(O)CNCP(=O)(O)O [MEA + glyphosate]
- Palmer control (%) [2]: 9%

Molecule: Cl.N [ammonium chloride]
- effect of additive on efficacy of the polynucleotides and herbicidal activity of glyphosate [1]: act similarly to ammonium sulfate

Molecule: O=C(O)CN(CCN(CC(=O)O)CC(=O)O)CC(=O)O [ethylenediaminetetraacetic acid (EDTA), ethylenediaminetetraacetic acid]
- effect of additive on efficacy of the polynucleotides and herbicidal activity of glyphosate [1]: act similarly to 2% ammonium sulfate

Molecule: O=C(O)CNCP(=O)(O)O [isopropylammonium salt of glyphosate, glyphosate, reference compound]
- herbicidal activity by glyphosate salt ([2]; 1682 g ae/ha glyphosate salt with IDT [1]-[4], 21 days after glyphosate treatment): better herbicidal activity compared to the potassium salt

Molecule: NCCCCNCCCN [spermidine, N-(3-aminopropyl)butane-1,4-diamine]
- effect on 33-copy plants of polyamine alone ([3]; 10 mM, without polynucleotides): stunted
- performance compared with 2% ammonium sulfate [3]: neither spermine nor spermidine at 1 or 10 millimolar performed as well as 2% ammonium sulfate

Molecule: NCCCNCCCCNCCCN [spermine, N,N′-bis(3-aminopropyl)butane-1,4-diamine]
- performance compared with 2% ammonium sulfate [3]: neither spermine nor spermidine at 1 or 10 millimolar performed as well as 2% ammonium sulfate

Molecule: CCCC[P+](CCCC)(CCCC)CCCC.[Br-] [tetrabutylphosphonium bromide]
- effect of additive on efficacy of the polynucleotides and herbicidal activity of glyphosate [1]: act similarly to ammonium sulfate

Molecule: GGCAGTACAATTAAAGGAGATG (DNA, backbone not given here; listed as Nicotiana benthamiana) [SEQ ID NO:39]
- bleaching without surfactant conditioning (FIG. 18B) ([4]; 1 nanomole by infiltration or hand application of drops, no conditioning): displayed bleaching of apical leaves, stems, and flowers
- bleaching of apical leaves, stems, and flowers (FIG. 18A) ([4]; 1 nanomole per plant after surfactant conditioning): all displayed bleaching
- germination rate ([4]; seeds from ssDNA-treated plants, control 95 out of 100): 4 out of 100
- seed weight ([4]; seeds from ssDNA-treated plants, identical to control): about 11 mg per 100 seeds

B1: 198 bp Palmer PDS dsRNA: dsRNA to positions 797-994 of Palmer amaranth PDS (SEQ ID NO:37) (nucleic acid, listed as Amaranthus palmeri)
sense: ACCGATTCCTGCAGGAGAAACATGGTTCTAAGATGGCCTTCCTAGACGGAAACCCTCCAGAGAGGCTGTGCATGCCTATTGTTAAACACATCGAGTCACTAGGTGGTGAAGTTAAACTTAACTCTCGTATACAAAAGATTCAGTTGGACCAGAGTGGAAGCGTGAAGAGTTTTTTGCTAAATAACGGGAGGGAAATAC
modifications: complementary strand
- bleaching of leaves ([5]; 0.6 micromolar, 40 microliters per plant, 3 days post treatment): showed bleaching of leaves
- bleaching of leaves (FIG. 17) ([5]; separate assay): apical leaf bleaching observed
